This is an account of results in US7304037B2, “Cytostatic conjugates with integrin ligands” (priority 2001, dated 2007).

A word on the IC50: it is the concentration that inhibits the measured activity by half.

The test system of data set [1] is breast cancer model (MX-1). The source says: (§1) In all in-vivo experiments for investigating the inhibition of tumour growth, athymic nude mice (NMRI nu/nu strain) were used. The tumour was developed by serial passage in nude mice, The human origin of the tumour was confirmed by isoenzymatic and immunohistochemical methods.
(§2) The tumour was implanted subcutaneously in both flanks of nu/nu nude mice 6 to 8 weeks old. […] The mice were assigned to the treatment group or the control group (5 mice per group having 8 to 10 assessable tumours) by randomization.
(§3) The size of the tumours was measured in two dimensions by means of a slide gauge. The tumour volume which correlated well with the cell count, was then used for all assessments. The volume was calculated according to the formula “length×breadth×breadth/2” ([a×b^2]/2; a and b representing two diameters arranged at right angles).
(§4) The values of the relative tumour volume (RTV) were calculated for each individual tumour by dividing the tumour size on day X with the tumour size on day 0 (at the time of randomization). The average values of the RTV were then used for the further assessment.
(§5) The inhibition of the increase of the tumour volume (tumour volume of the test group/control group, T/C, in percent) was the final measured value.
The compounds are dissolved in 1% aqueous dextrose solution and administered intravenously from day 1–3 and day 15–17.

Data set [2] has as its target T1, αvβ3 receptor (αvβ3 from human A375 cells) (Homo sapiens, UniProt P05106+P06756).
T1 construct: αvβ3 from human A375 cells was purified analogously to a procedure described by Wong et al; endogenous in cells; host or cells: human A375 cells (endogenous receptor, detergent-solubilised and purified)
Briefly: αvβ3 binding test (echistatin displacement, SPA). The conditions noted are these: read-out: IC50 values of the binding to the αVβ3 receptor. How it is done:
αvβ3 from human A375 cells was purified analogously to a procedure described by Wong et al. in Molecular Pharmacology 50, 529–537 (1996). In each case, 10 μL of αvβ3 (5 ng) in TBS pH 7.6, 2 mM CaCl2, 1 mM MgCl2, 1% n-octylglucopyranoside (Sigma); 10 μL of test substance in TBS pH 7.6, 0.1% DMSO and 45 μL of TBS pH 7.6, 2 mM CaCl2, 1 mM MgCl2, 1 mM MnCl2 were incubated at room temperature for 1 h. In each case, 25 μL of WGA SPA beads (Amersham, 4 mg/ml) and 10 μL of echistatin (0.1 μCi, Amersham, chloramine-T labelled) were then added. After 16 h at room temperature, the samples were measured in a scintillation measuring apparatus (Wallac 1450).

The subject of data set [3] is SW480 human large intestine cell line. It is filed as cell-based. How it is done:
(§6) The human large intestine cell lines SW 480 and HT29 (ATCC No. CCL 228) and HTB38 and the mouse melanoma cell line B16F10 (CRL 6475) were grown to confluence in Roux dishes in seromed® RPMI 1640 medium (from Biochrom KG, Berlin) with addition of 10% FCS. They were then trypsinized and taken up in RPMI plus 10% FCS to a cell count of 50,000 cells or, for B16F10, 20,000 cells per mL. 100 μL of cell suspension per well were added to a 96 microwell plate and incubated at 37° C. for 1 day in a CO2 incubator. A further 100 μL of RPMI medium and 1 μL of DMSO were then added with the test substances. The growth was checked after day 6. For this purpose, 25 μL of MTT solution (3-(4,5-dimethylthiazol-2-yl)-2,5-diphenyltetrazolium bromide) were added to each well at a starting concentration of 5 mg/mL of water. The plate was incubated at 37° C. for 5 hours in a CO2 incubator. The medium was then aspirated and 100 1L of i-propanol/well were added. After shaking with 100 μL of water for 30 min, the extinction was measured at 595 nm using a Multiplate Reader (BIO-RAD 3550-UV).
(§7) The cytostatic action is indicated in Table 3 as an IC50 value, in each case for the individual cell lines.

Data set [4] deals with HT29 human large intestine cell line. It is filed as cell-based. How it is done: as §6, §7
In data set [5] the test system is B16F10 mouse melanoma cell line. Format: cell-based. As to the method:
as §6, §7

Data set [6] concerns melanoma xenograft (MEXF 989). It is filed as in vivo, athymic nude mice (NMRI nu/nu strain).
Data set [7] has as its system hemopoietic stem cells (bone marrow cells). Briefly: cells. It is filed as cell-based, mice. How it is done:
Bone marrow cells are flushed out of the femur of mice. 10^5 cells are incubated in McCoy 5A medium (0.3% agar) together with recombinant murine GM-CSF (Genzyme; parent cell colony formation) and the substances (10^−4 to 100 μg/ml) at 37° C. and 7% CO2. 7 days later, the colonies (<50 cells) and clusters (17–50 cells) are counted.

Data set [8] relates to renal xenograft (RXF 944).
Excerpt: as §1, §2, §3, §4, §5

Where [9] appears, read: MX-1, 6 mg/kg/day intravenously day 1–3 and day 15–17.
The mark [10] stands for this setting: MEXF 989, 6 mg/kg/day intravenously day 1–3 and day 15–17.
Setting [11] is: RXF 944, 6 mg/kg/day intravenously day 1–3 and day 15–17.

T1 sequence (P06756 31-889 limits assumed): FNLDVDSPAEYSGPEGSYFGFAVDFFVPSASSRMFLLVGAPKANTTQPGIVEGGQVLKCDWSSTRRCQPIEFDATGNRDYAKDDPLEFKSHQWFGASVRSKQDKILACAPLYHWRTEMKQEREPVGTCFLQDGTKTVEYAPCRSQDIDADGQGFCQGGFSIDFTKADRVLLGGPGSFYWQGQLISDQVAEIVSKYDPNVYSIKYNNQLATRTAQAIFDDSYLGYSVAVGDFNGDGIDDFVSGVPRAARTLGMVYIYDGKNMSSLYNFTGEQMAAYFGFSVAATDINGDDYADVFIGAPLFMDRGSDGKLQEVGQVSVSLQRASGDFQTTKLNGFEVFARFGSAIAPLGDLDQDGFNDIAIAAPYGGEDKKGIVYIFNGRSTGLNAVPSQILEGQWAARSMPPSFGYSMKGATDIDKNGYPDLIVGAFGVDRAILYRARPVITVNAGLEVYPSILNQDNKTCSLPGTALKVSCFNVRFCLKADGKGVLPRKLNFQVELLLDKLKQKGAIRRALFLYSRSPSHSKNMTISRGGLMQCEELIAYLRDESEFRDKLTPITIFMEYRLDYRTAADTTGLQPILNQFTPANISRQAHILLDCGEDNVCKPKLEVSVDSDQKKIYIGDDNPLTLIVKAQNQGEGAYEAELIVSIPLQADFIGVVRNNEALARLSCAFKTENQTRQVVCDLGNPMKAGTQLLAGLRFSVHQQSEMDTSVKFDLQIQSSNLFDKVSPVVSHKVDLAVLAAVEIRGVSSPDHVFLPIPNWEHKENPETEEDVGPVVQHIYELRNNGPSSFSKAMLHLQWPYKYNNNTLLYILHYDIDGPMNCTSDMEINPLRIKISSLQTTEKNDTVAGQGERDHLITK
T1 sequence (P06756 891-1048 partner limits assumed): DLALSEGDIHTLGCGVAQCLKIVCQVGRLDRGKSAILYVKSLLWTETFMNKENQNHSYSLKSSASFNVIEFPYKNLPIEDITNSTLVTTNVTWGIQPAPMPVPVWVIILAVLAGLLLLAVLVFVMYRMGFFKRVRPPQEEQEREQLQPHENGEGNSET
T1 sequence (P05106 27-788): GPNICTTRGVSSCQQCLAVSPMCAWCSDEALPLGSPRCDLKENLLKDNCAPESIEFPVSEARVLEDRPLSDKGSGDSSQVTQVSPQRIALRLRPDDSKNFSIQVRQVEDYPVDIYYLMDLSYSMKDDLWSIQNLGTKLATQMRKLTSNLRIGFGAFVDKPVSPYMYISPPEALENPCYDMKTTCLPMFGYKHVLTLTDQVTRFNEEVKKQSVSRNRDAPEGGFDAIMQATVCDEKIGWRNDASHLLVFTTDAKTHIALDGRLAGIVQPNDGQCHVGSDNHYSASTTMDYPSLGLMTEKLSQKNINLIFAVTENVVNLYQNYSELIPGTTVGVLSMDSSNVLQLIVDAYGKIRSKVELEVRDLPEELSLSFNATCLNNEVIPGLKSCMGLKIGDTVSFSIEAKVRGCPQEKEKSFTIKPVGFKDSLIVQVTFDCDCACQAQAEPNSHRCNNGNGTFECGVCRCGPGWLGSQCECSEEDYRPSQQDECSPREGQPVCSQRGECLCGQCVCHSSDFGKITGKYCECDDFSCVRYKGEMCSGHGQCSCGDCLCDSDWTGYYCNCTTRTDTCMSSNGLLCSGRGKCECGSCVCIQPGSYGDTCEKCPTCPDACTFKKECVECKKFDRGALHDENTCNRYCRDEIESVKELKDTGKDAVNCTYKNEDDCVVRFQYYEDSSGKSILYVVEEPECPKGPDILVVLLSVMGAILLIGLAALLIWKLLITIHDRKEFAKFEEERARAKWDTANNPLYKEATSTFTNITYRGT

As to `CCCNC(=O)Nc1cccc(S(=O)(=O)Nc2cccc(C(CC(=O)O)NC(=O)Nc3ccc(NC(=S)N[C@@H](C)C(=O)N4CCC[C@H]4C(=O)N[C@H](C(=O)O[C@]4(CC)C(=O)OCc5c4cc4n(c5=O)Cc5cc6ccccc6nc5-4)C(C)C)cc3)c2)c1` (single isomer, unassigned) [Example 3], the lethality is 0/5 in data set [1] (setting [9]), 0/5 in data set [6] (setting [10]) and 1/7 in data set [8] (setting [11]). Besides, the “optimal T/C” value was 12.4% in data set [1] (setting [9]), 10.3% in data set [6] (setting [10]) and 24.0% in data set [8] (setting [11]). For the same compound, the “inhibition of the tumour growth (in words)” value in data set [1] (MX-1, intravenously day 1–3 and day 15–17) is “effected inhibitions of the tumour growth”; in data set [6] (MEXF 989, intravenously day 1–3 and day 15–17), “effected inhibitions of the tumour growth”; in data set [8] (RXF 944, intravenously day 1–3 and day 15–17), “effected inhibitions of the tumour growth”. Also, the half-inhibitory concentration (IC50) in data set [2] was 15 nM; in data set [3], 500 nM; in data set [4], 150 nM; in data set [5], 700 nM. Besides, the “toxicity against stem cells in vitro compared to camptothecin (in words)” value in data set [7] is “drastically reduced toxicity against stem cells in vitro compared to camptothecin”.
